Where a name gives a salt, the structure may show the parent alone. Read-outs that look alike come from different tables or passages of the source.
Key:
G. lamblia = assay: 50% inhibitory concentration against G. lamblia; format: cell-based
From the text: ^d 50% Inhibitory concentration against G. lamblia, P. carinii
topoisomerase. See, Bell, et al., supra.

Pneumocystis carinii [1] = assay: In vivo Activity Against Pneumocystis carinii in Rats; conditions: saline = 100%
Pneumocystis carinii [2] = conditions: rat, in vivo
C. Parvum = assay: Inihibition of C. Parvum; format: in vivo
poly dA.dT = assay: DNA binding: increase in thermal melting of poly dA.dT
From the text: ^a Increase in thermal melting of poly dA.dT. See, W. Wilson, et al.,

[3] = target: T1, topoisomerase II isolated from P. carinii (Pneumocystis carinii, UniProt A0A0W4ZKQ4); assay: Inhibition of topoisomerase II isolated from P. carinii; format: biochemical
T1 construct: homodimer
T1 sequence (A0A0W4ZKQ4 1-1493): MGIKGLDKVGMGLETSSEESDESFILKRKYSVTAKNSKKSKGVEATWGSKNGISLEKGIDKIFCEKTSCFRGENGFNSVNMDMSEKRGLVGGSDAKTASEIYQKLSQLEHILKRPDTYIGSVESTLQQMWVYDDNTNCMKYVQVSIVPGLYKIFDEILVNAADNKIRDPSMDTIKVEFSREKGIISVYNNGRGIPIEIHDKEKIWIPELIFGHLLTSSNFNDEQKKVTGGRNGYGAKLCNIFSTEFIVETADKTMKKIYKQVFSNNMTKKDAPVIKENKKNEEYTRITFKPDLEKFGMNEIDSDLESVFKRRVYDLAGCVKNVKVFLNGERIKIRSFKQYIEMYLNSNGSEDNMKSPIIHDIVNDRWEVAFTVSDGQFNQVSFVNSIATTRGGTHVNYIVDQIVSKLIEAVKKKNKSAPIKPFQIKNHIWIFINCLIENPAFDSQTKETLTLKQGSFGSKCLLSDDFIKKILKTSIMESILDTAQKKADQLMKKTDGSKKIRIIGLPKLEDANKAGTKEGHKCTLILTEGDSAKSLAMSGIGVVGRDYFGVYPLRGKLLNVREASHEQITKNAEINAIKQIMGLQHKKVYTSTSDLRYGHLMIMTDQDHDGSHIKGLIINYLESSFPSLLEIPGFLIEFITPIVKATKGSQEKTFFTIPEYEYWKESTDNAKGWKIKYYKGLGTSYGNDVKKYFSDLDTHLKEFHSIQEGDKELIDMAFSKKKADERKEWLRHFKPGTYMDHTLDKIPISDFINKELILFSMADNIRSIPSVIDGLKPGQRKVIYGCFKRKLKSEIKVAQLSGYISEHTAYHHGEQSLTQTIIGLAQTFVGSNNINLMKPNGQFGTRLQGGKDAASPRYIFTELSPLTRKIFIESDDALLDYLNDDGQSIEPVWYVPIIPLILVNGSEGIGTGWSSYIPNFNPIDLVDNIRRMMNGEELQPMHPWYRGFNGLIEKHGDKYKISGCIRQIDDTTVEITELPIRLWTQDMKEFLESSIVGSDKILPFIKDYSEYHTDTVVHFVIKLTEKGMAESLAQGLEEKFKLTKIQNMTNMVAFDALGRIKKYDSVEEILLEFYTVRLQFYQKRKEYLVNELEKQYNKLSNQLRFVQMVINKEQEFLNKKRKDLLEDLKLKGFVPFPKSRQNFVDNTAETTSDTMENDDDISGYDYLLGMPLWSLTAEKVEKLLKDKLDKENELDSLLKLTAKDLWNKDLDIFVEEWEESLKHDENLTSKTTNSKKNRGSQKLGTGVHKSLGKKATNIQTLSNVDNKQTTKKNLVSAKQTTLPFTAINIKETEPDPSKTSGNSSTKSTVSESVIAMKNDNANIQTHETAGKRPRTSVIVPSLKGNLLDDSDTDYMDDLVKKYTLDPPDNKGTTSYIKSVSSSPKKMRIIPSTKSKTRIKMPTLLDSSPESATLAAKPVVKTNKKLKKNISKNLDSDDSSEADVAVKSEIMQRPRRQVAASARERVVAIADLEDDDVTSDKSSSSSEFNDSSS
From the text: ^c Inhibition of topoisomerase II isolated from P. carinii. See, C.
Dykstra, et al., J. Protozool. 38:78S (1991).

[4] = Giardia duodenalis; read-out: G. lamblia IC50

## Cl.N=C(N)c1ccc(-c2ccnc(-c3ccc(C(=N)N)cc3)n2)cc1 [Compound 1, 2,4-Bis-(4-guanylphenyl)pyrimidine hydrochloride]
G. lamblia; [4]
  IC50: 2000 nM
Pneumocystis carinii [1]; 5.0 mg/Kg per day
  cyst/g Lung: 2.4%
Pneumocystis carinii [1]; 10.0 mg/Kg per day
  cyst/g Lung: 0.8%
Pneumocystis carinii [2]; 5 mg/kg/day
  Toxicity: 0
Pneumocystis carinii [2]; 10 mg/kg/day
  Toxicity: 1+
C. Parvum; 0.1 mg/kg/day
  % efficacy: 30%
C. Parvum; 5 mg/kg/day
  % efficacy: 68%
C. Parvum; 25 mg/kg/day
  % efficacy: 50%
Poly dA.dT
  DNA binding (Increase in thermal melting of poly dA.dT): 21.5

## c1cc(-c2ccc(C3=NCCN3)cc2)nc(-c2ccc(C3=NCCN3)cc2)n1 [Compound 2, 2,4Bis[(4imidazolin-2-yl)phenyl]pyrimidine hydrochloride]
G. lamblia; [4]
  IC50: 3000 nM
Pneumocystis carinii [1]; 5.0 mg/Kg per day
  cyst/g Lung: 2.4%
Pneumocystis carinii [2]; 5 mg/kg/day
  Toxicity: 0

## c1cc(-c2ccc(C3=NCCCN3)cc2)nc(-c2ccc(C3=NCCCN3)cc2)n1 [Compound 3, 2,4Bis[(4tetrahydropyrimmidinyl-2-yl)phenyl]pyrimidine hydrochloride]
G. lamblia; [4]
  IC50: 790 nM
Pneumocystis carinii [1]; 2.5 mg/Kg per day
  cyst/g Lung: 85.2%
Poly dA.dT
  DNA binding (Increase in thermal melting of poly dA.dT): 25

## c1ccc(-c2nccc(-c3ccc(C4=NCCN4)cc3)n2)cc1 [Compound 4, 2phenyl-4-[4(imidazolin-2-yl)phenyl]pyrimidine hydrochloride]
G. lamblia; [4]
  IC50: 2000 nM
Pneumocystis carinii [1]; 5.0 mg/Kg per day
  cyst/g Lung: 21.1%

## COc1cc(C(=N)NC(C)C)ccc1-c1ccnc(-c2ccc(C(=N)NC(C)C)cc2)n1 [Compound 5, 2-(4-[N-i-propylguanyl]phenyl)-4-(2-methoxy-4-[N-i-propylguanyl]phenyl)pyrimidine]
G. lamblia; [4]
  IC50: 36700 nM
Pneumocystis carinii [1]; 2.5 mg/Kg per day
  cyst/g Lung: 1.0%
[3]
  Topoisomerase P. Carinii (Inhibition of topoisomerase II isolated from P. carinii): no
Poly dA.dT
  DNA binding (Increase in thermal melting of poly dA.dT): 13.9

## N=C(N)c1ccc(OCCCCCOc2ccc(C(=N)N)cc2)cc1 [Pentamidine, reference compound]
G. lamblia; Giardia duodenalis, read-out: G. lamblia IC50
  IC50: 2600 nM
Poly dA.dT
  DNA binding (Increase in thermal melting of poly dA.dT): 12.8

From patent US5622955A, “Methods of treating cryptosporidium parvum” (The University of North Carolina at Chapel Hill, priority 1995, dated 1997)
